Experiments:
Type in all cases: in vivo
[1] = test system: anesthetized lamb with acute pulmonary hypertension due to U46619 infusion; experiment: Continuous NO generation with respiratory system 10 (NO generator 14) in anesthetized lambs with U46619-induced pulmonary hypertension
Text: (§1) Animal studies were approved by the Institutional Animal Care and Use Committee of Massachusetts General Hospital (Boston, MA). Eight lambs (New England Ovis, Dover, NH) weighing 32±2 kg were studied. General anesthesia was induced with 5% inhaled isoflurane (1-chloro-2,2,2-trifluoroethyldifluromethyl ether, Baxter, Deerfield, IL) in oxygen delivered via a mask and then maintained with 1-4% isoflurane in 50% oxygen during surgery. After tracheal intubation, the lambs were instrumented with indwelling carotid artery pulmonary artery catheters. All hemodynamic measurements were performed in anesthetized lambs ventilated with a mechanical ventilator (model 7200, Puritan Bennett, Pleasanton, CA) at a tidal volume of […] and rate of 12-15 breaths/min.
(§2) To induce pulmonary hypertension, a potent pulmonary vasoconstrictor U46619 (Cayman Chemical, Ann Arbor, MI), the analog of the endoperoxide prostaglandin H2, was infused intravenously at a rate of 0.8-0.9 μg/kg/min to increase pulmonary arterial pressure (PAP) to 30 mmHg. The mean arterial pressure and PAP were continuously monitored using a Gould 6600 amplifier system (Gould Electronics, Inc., Eastlake, OH). Pulmonary capillary wedge pressure, heart rate, and cardiac output were intermittently measured at baseline, during U46619 infusion, and before and after inhalation of NO generated using either the respiratory system 10, the respiratory system 100, or NO delivered and diluted at the same level from a compressed gas cylinder. Cardiac output was assessed by thermal dilution as the average of three measurements after an intravenous bolus injection of 10 mL of ice-cold saline solution. Pulmonary vascular resistance index (PVRI), as well as cardiac index (CI), were calculated using standard formulae. The gas cylinder contained 500 ppm NO diluted in nitrogen.
The respiratory system 10 was tested with an anesthetized lamb as the patient 11. A baseline (BL) was generated then the NO generator 14 of the respiratory system 10 was triggered to continuously spark (i.e., generate NO) after […] was administered for 30 minutes. The NO was pumped at 5 L/min into the inspiratory line 18. The electrodes 36 were fabricated from iridium-platinum. Once triggered, the controller 33 was configured to spark the electrodes 36 for 4 minutes using the following settings: B=35, N=25, P=240 μs; and H=100 μs, which produced approximately 40 ppm of NO, and then the controller 33 stopped the NO generator 14. The test was performed when 21% oxygen was supplied to the inlet 24 of the NO generator 14, when 50% oxygen was supplied to the inlet 24 of the NO generator 14, and compared with NO supplied at the same concentration to the anesthetized lamb from a gas cylinder. […]

[2] = test system: anesthetized lamb with acute pulmonary hypertension; experiment: Intermittent NO generation with respiratory system 100 (NO generator 102) in anesthetized lambs with U46619-induced pulmonary hypertension; settings: 4 minutes
Text: as §1, §2
The respiratory system 100 was tested with an anesthetized lamb as the patient 11. A baseline (BL) was generated then the NO generator 102 of the respiratory system 100 was triggered to intermittently spark (i.e., generate NO) after U46619 was administered for 30 minutes. The electrodes 36 were fabricated from iridium-platinum. The controller 33 was configured to spark the electrodes 36 only during the first 0.8 seconds of inspiration for 4 minutes using the following settings: B=35, N=25, P=240 μs; and H=100 μs and then the controller 33 stopped the NO generator 102, The test was performed when 21% oxygen was supplied in the inspiratory line 18, when 50% oxygen was supplied in the inspiratory line 18, and when NO was supplied to the anesthetized lamb from a gas cylinder.
Also, the reduction in PAP and PVRI for the NO produced by the NO generator 102 was similar to the reduction in PAP and PVRI for NO supplied and diluted from the compressed gas cylinder. […]

[3] = test system: anesthetized lamb with acute pulmonary hypertension; experiment: Continuous NO generation with respiratory system 100 (NO generator 102) in anesthetized lambs with U46619-induced pulmonary hypertension
Text: as §1, §2
The respiratory system 100 was tested with an anesthetized lamb as the patient 11. A baseline (BL) was generated then the NO generator 102 of the respiratory system 100 was triggered to continuously spark (i.e., generate NO) after U46619 was administered for 30 minutes. The electrodes 36 were fabricated from iridium-platinum. Once triggered, the controller 33 was configured to spark the electrodes 36 for 4 minutes using the following settings: B=35, N=25, P=240 μs; and H=100 μs, which produced approximately 40 ppm of NO, and then the controller 33 stopped the NO generator 102. The test was performed when 21% oxygen was supplied in the inspiratory line 18, when 50% oxygen was supplied in the inspiratory line 18, and when NO was supplied to the anesthetized lamb diluted from a compressed gas cylinder.
Also, the reduction in PAP and PVRI for the NO produced by the NO generator 102 was similar to the reduction in PAP and PVRI for the NO supplied by the gas cylinder. […]

[4] = NO produced by NO generator 14, continuous sparking, 4 minutes
[5] = inhaled NO approximately 40 ppm continuously produced by NO generator 14 for 4 minutes, breathing 21% and 50% oxygen
[6] = NO produced by NO generator 102, intermittent sparking
[7] = NO produced by NO generator 102 only during first 0.8 seconds of inspiration, breathing 21% and 50% oxygen
[8] = NO produced by NO generator 102, continuous sparking, 4 minutes
[9] = inhaled NO approximately 40 ppm continuously produced inline by NO generator 102 for 4 minutes, breathing 21% and 50% oxygen

SMILES: [N]=O [NO, nitric oxide]
- reduction in PAP compared with NO supplied at the same level by dilution from the gas cylinder [1, 4]: similar
- reduction in PVRI compared with NO supplied at the same level by dilution from the gas cylinder [1, 4]: similar
- mean pulmonary artery pressure (PAP) [1, 5]: rapidly reduced
- pulmonary vascular resistance index (PVRI) [1, 5]: rapidly reduced
- reduction in PAP compared with NO supplied and diluted from the compressed gas cylinder [2, 6]: similar
- reduction in PVRI compared with NO supplied and diluted from the compressed gas cylinder [2, 6]: similar
- mean pulmonary artery pressure (PAP) [2, 7]: rapidly reduced
- pulmonary vascular resistance index (PVRI) [2, 7]: rapidly reduced
- reduction in PAP compared with NO supplied by the gas cylinder [3, 8]: similar
- reduction in PVRI compared with NO supplied by the gas cylinder [3, 8]: similar
- mean pulmonary artery pressure (PAP) [3, 9]: rapidly reduced
- pulmonary vascular resistance index (PVRI) [3, 9]: rapidly reduced

From patent publication US12383692B2, “Systems and methods for synthesis of nitric oxide” (The General Hospital Corporation, priority 2014, dated 2025)
